Legend:
Assay type in all cases: binding
[1] = molecular target: T1, 4-hydroxy-tetrahydrodipicolinate reductase (VvDapB) (Vibrio vulnificus, UniProt Q8DEM0); assay: ITC
[2] = molecular target: T2, 4-hydroxy-tetrahydrodipicolinate reductase (MtDapB) (Mycobacterium tuberculosis, UniProt P9WP23); assay: ITC
[3] = molecular target: T1, 4-hydroxy-tetrahydrodipicolinate reductase (VvDapB); assay: X-ray crystal structure
[4] = molecular target: T2, 4-hydroxy-tetrahydrodipicolinate reductase (MtDapB); assay: X-ray crystal structure

T2 sequence (P9WP23 whole entry): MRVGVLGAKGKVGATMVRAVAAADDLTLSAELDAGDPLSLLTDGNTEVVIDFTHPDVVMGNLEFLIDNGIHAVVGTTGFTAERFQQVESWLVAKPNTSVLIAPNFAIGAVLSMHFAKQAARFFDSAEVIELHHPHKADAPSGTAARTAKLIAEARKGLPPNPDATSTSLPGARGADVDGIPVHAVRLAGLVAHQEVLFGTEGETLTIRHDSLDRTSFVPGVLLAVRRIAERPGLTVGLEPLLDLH
T1 sequence (Q8DEM0 whole entry): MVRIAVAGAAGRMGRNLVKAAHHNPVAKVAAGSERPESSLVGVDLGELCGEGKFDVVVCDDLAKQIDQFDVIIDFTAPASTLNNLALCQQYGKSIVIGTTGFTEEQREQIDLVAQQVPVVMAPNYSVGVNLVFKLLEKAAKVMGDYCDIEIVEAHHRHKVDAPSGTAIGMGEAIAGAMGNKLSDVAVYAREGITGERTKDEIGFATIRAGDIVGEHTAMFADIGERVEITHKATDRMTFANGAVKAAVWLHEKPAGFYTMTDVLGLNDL

| SMILES | Kd [1] [µM] | Kd [2] [µM] | X-ray crystal structure [3] | X-ray crystal structure [4] |
| --- | --- | --- | --- | --- |
| NC(=O)C1=CN([C@@H]2O[C@H](COP(=O)(O)OP(=O)(O)OC[C@H]3O[C@@H](n4cnc5c(N)ncnc54)[C@H](O)[C@@H]3O)[C@@H](O)[C@H]2O)C=CC1 [NADH] | 3.9 ± 1.2 | 3.6 ± 0.4 | – | – |
| NC(=O)c1ccc[n+]([C@@H]2O[C@H](COP(=O)([O-])OP(=O)(O)OC[C@H]3O[C@@H](n4cnc5c(N)ncnc54)[C@H](O)[C@@H]3O)[C@@H](O)[C@H]2O)c1 [NAD+] | – | – | NADH was used for crystallization, in all cases we observed NAD^+ in the crystal structures | apo MtDapB (PDB ID: 5TEK chain A) and NAD^+ bound MtDapB (PDB ID: 5UGV chain A) structures |
